The source of these data is US10800741B2 (ANCUREALL PHARMACEUTICAL (SHANGHAI) CO., LTD., priority 2017, dated 2020).

What all share (type): cell-based, Human
The subject of one assay is Hep3B2 (FGFR3/4+++). Kind of assay: In vitro growth inhibition of Hep3B2 tumor cells (MTT/CCK8). The conditions noted are these: Homo sapiens, Hep3B; in vitro growth inhibition (or induction of apoptosis), cells cultured 3 to 5 days, MTT (CCK8); read-out: IC50 Hep3B2 (FGFR3/4+++). The text has this:
(§1) Tumor cell lines are an effective model for studying in vitro tumor growth inhibition. In the present invention, a representative tumor cell line was selected to determine the cell growth inhibition activity of the present compound. All cell lines used were from ATCC, DSMZ, and cell banks of the Chinese Academy of Sciences. Cell culture conditions and methods were in accordance with the requirements of each cell line. Cells were subcultured in vitro for no more than 3 generations each time, and as required, single-clone purification and identification of cell lines could be carried out.
(§2) The cell culture media used were RPMI1640 (Gibco), DMEM (Gibco), MEM (Gibco), L15 (Gibco), IMDM (Gibco), McCOY'S5A, and William's (Gibco). 5-20% fetal bovine serum (Gibco), 1% double antibiotic, 2 mM glutamine, or 1 mM sodium pyruvate were added. The names, species, major gene characteristics, culture media and cell sources of the cell lines used are shown in table 1, wherein “amp” refers to gene amplification. “+++” refers to gene overexpression. The main genetic characteristics of cells were obtained from the COSMIC Cell Lines Project and related research papers, respectively.
(§3) Adherent cells were digested with 0.25% trypsin-EDTA (Gibco). Suspension culture cells were collected by centrifugation (1700 rpm, 3 minutes). The supernatant was discarded and the cells were counted. According to each cell growth cycle, different concentrations of cells were prepared (5˜10×10^4 cells per ml), and inoculated to 96-well plates (Corning), with 100 μl per well, and incubated overnight at 37° C., 5% CO2. The next day, the test compound was added to the cultured cells (2 wells in parallel). The final concentration of the solvent was less than 1/1,000. The cells were further cultured for 3 to 5 days and assayed by MTT.
(§4) The compound was stored at a concentration of 10 mM at −20° C. and diluted to 2- or 10-fold series prior to use. BGJ398 and AC220 were synthesized according to the methods of WO2006420A1 and US2007232604A1, respectively.
(§5) The adherent cells were taken out from the cell culture medium, and immediately added to a freshly prepared complete medium containing 10% CCK8 (5% FBS), 100 ul per hole. The suspended cells were directly added to a CCK8 reagent until reaching a final concentration of 10% and cultured for 1 to 4 hours.
(§6) T=optical density of drug-treated cell wells−optical density of blank control wells; T0=optical density of cell wells before drug treatment−optical density of blank control wells; C=optical density of solvent control wells−optical density of blank control wells. […] The experiments were repeated 1 to 3 times and a statistical analysis of data was conducted.

Another assay has as its system MOLM-13 (FLT3-ITD). Kind of assay: In vitro growth inhibition of MOLM-13 tumor cells (MTT/CCK8). The conditions noted are these: Homo sapiens.
Source text: as §1, §2, §3, §4, §5, §6

A further assay deals with KATO III (FGFR2 amp). Kind of assay: In vitro growth inhibition of KATO III tumor cells (MTT/CCK8). As to conditions: Homo sapiens, KATO III; in vitro growth inhibition (or induction of apoptosis), cells cultured 3 to 5 days, MTT (CCK8); read-out: IC50 KATO III (FGFR2 amp).
Source text: as §1, §2, §3, §4, §5, §6

The next assay relates to H1703 (PDGFRa amp). Kind of assay: In vitro growth inhibition of H1703 tumor cells (MTT/CCK8). As to conditions: Homo sapiens, NCI-H1703; in vitro growth inhibition (or induction of apoptosis), cells cultured 3 to 5 days, MTT (CCK8); read-out: IC50 H1703 (PDGFRa amp).
Source text: as §1, §2, §3, §4, §5, §6

Another assay concerns Karpas 299 (NPM-ALK). The experiment in a line: In vitro growth inhibition of Karpas 299 tumor cells (MTT/CCK8). As to conditions: Homo sapiens.
Source text: as §1, §2, §3, §4, §5, §6

Another assay concerns Kasumi-1 (KIT N822K). The experiment in a line: In vitro growth inhibition of Kasumi-1 tumor cells (MTT/CCK8). The conditions noted are these: Homo sapiens, Kasumi 1; in vitro growth inhibition (or induction of apoptosis), cells cultured 3 to 5 days, MTT (CCK8); read-out: IC50 Kasumi-1 (KIT N822K).
Source text: as §1, §2, §3, §4, §5, §6

The test system of another assay is KCL-22 (BCR-ABL). The experiment in a line: In vitro growth inhibition of KCL-22 tumor cells (MTT/CCK8). As to conditions: Homo sapiens, KCL-22; in vitro growth inhibition (or induction of apoptosis), cells cultured 3 to 5 days, MTT (CCK8); read-out: IC50 KCL-22 (BCR-ABL).
Source text: as §1, §2, §3, §4, §5, §6

The next assay has as its system H1581 (FGFR1 amp). Kind of assay: In vitro growth inhibition of H1581 tumor cells (MTT/CCK8). As to conditions: Homo sapiens, NCI-H1581; in vitro growth inhibition (or induction of apoptosis), cells cultured 3 to 5 days, MTT (CCK8); read-out: IC50 H1581 (FGFR1 amp).
Source text: as §1, §2, §3, §4, §5, §6

The mark [1] stands for this setting: MOLM-13, in vitro growth inhibition (or induction of apoptosis), cells cultured 3 to 5 days, MTT (CCK8), read-out: IC50 MOLM-13 (FLT3-ITD).
The mark [2] stands for this setting: KARPAS-299, in vitro growth inhibition (or induction of apoptosis), cells cultured 3 to 5 days, MTT (CCK8), read-out: IC50 Karpas 299 (NPM-ALK).

Molecules are shown by their SMILES. pIC50: −log10 of the molar value. Like-named read-outs stand apart in the source and are kept apart here.

Consider `CN1CCCN(CCCOc2cc3nccc(Oc4ccc(NC(=O)Nc5cc(C(C)(C)C)n[nH]5)c(Cl)c4)c3cc2C(N)=O)CC1` [Compound 88, 4-{4-[3-(5-tert-butyl-2H-pyrazol-3-yl)-ureido]-3-chloro-phenoxy}-7-[3-(4-methyl-[1,4]-1-yl)-propoxy]-quinolin-6-carboxamide], for which the pIC50 with Hep3B2 (FGFR3/4+++) is 6.76; in the assay with MOLM-13 (FLT3-ITD) (setting [1]), 8.26; with KATO III (FGFR2 amp), 8.25; in the assay with H1703 (PDGFRa amp), 7.25; with Karpas 299 (NPM-ALK) (setting [2]), 6.82; in the assay on Kasumi-1 (KIT N822K), 7.81. In addition, the pIC50 in the assay on KCL-22 (BCR-ABL) is 6.55.
With `CC(C)(C)c1cc(NC(=O)Nc2ccc(Oc3ccnc4cc(OCCCN5CCN(C(C)(C)C)CC5)c(C(N)=O)cc34)cc2Cl)[nH]n1` [Compound 87, 7-[3-(4-tert-butyl-piperazin-1-yl)-propoxy]-4-{4-[3-(5-tert-butyl-2H-pyrazol-3-yl)-ureido]-3-chlorophenoxy}-quinolin-6-carboxamide], the pIC50 is 7.24 in the assay on Hep3B2 (FGFR3/4+++); 8.44 in the assay on MOLM-13 (FLT3-ITD) (setting [1]); 8.99 in the assay with KATO III (FGFR2 amp); 7.90 in the assay on H1703 (PDGFRa amp); 6.84 in the assay on Karpas 299 (NPM-ALK) (setting [2]); 8.38 in the assay with Kasumi-1 (KIT N822K). Also, the pIC50 in the assay with KCL-22 (BCR-ABL) is 7.26.
Regarding `CC(C)CN1CCN(CCCOc2cc3nccc(Oc4ccc(NC(=O)Nc5cc(C(C)(C)C)n[nH]5)c(Cl)c4)c3cc2C(N)=O)CC1` [Compound 89, 4-{4-[3-(5-tert-butyl-2H-pyrazol-3-yl)-ureido]-3-chloro-phenoxy}-7-[3-(4-isobutyl-piperazin-1-yl)-propoxy]-quinolin-6-carboxamide], the pIC50 in the assay with Hep3B2 (FGFR3/4+++) was 7.71; in the assay on MOLM-13 (FLT3-ITD) (setting [1]) it was 8.19; in the assay on KATO III (FGFR2 amp) it was 8.95; with H1703 (PDGFRa amp), 7.88; in the assay with Karpas 299 (NPM-ALK) (setting [2]), 6.84; with Kasumi-1 (KIT N822K), 8.35. The pIC50 with KCL-22 (BCR-ABL) was 7.35.
In the case of `COc1cc2nccc(Oc3ccc(NC(=O)Nc4cc(C(C)(C)C)n[nH]4)cn3)c2cc1C(N)=O` [Compound 108, 4-{5-[3-(5-tert-butyl-2H-pyrazol-3-yl)-ureido]-pyridin-2-yloxy}-7-methoxy-quinolin-6-carboxamide], the pIC50 was 8.42 in the assay on MOLM-13 (FLT3-ITD) (setting [1]); 7.50 in the assay on KATO III (FGFR2 amp); 6.18 in the assay with H1703 (PDGFRa amp); under 6.00 with Karpas 299 (NPM-ALK) (setting [2]); under 6.00 in the assay with Kasumi-1 (KIT N822K); under 6.00 with KCL-22 (BCR-ABL). For the same compound, the pIC50 in the assay with H1581 (FGFR1 amp) was 6.83.
In the case of `CC(C)(C)c1cc(NC(=O)Nc2ccc(Oc3ccnc4cc(OCCCN5CCN(CC6CCCCC6)CC5)c(C(N)=O)cc34)cc2Cl)[nH]n1` [Compound 90], the pIC50 in the assay with Hep3B2 (FGFR3/4+++) is 7.00; in the assay with MOLM-13 (FLT3-ITD) (setting [1]), 8.12; in the assay with KATO III (FGFR2 amp), 8.56; in the assay with Karpas 299 (NPM-ALK) (setting [2]), 6.59; in the assay with Kasumi-1 (KIT N822K), 8.02; in the assay with KCL-22 (BCR-ABL), 6.76.
Regarding `Cc1ccc(C(=O)Nc2ccc(CN3CCN(C)CC3)c(C(F)(F)F)c2)cc1C#Cc1cnc2cccnn12` [Ponatinib, reference compound], the pIC50 with MOLM-13 (FLT3-ITD) (MOLM-13, read-out: IC50 MOLM-13 (FLT3-ITD)) is over 9.00; in the assay on Karpas 299 (NPM-ALK) (KARPAS-299, read-out: IC50 Karpas 299 (NPM-ALK)), 6.10.
Turning to `CC(C)(C)c1cc(NC(=O)Nc2ccc(Oc3ccnc4cc(OCCCN5CCN(c6ccccc6)CC5)c(C(N)=O)cc34)cc2Cl)[nH]n1` [Compound 86, 4-{4-[3-(5-tert-butyl-2H-pyrazol-3-yl)-ureido]-3-chloro-phenoxy}-7-[3-(4-phenyl-piperazin-1-yl)-propoxy]-quinolin-6-carboxamide], the pIC50 in the assay on Hep3B2 (FGFR3/4+++) is 7.07; with KATO III (FGFR2 amp), 7.17; with H1703 (PDGFRa amp) it was 6.43; in the assay with Karpas 299 (NPM-ALK) (setting [2]) it was 6.22; in the assay on Kasumi-1 (KIT N822K) it was 7.12; in the assay on H1581 (FGFR1 amp), 6.49.
`CC(=O)N1CCN(CCCOc2cc3nccc(Oc4ccc(NC(=O)Nc5cc(C(C)(C)C)n[nH]5)c(Cl)c4)c3cc2C(N)=O)CC1` [Compound 91, 7-[3-(4-acetyl-piperazin-1-yl)-propoxy]-4-{4-[3-(5-tert-butyl-2H-pyrazol-3-yl)-ureido]-3-chloro-phenoxy}-quinolin-6-carboxamide]: the pIC50 in the assay on Hep3B2 (FGFR3/4+++) is 7.37; in the assay on MOLM-13 (FLT3-ITD) (setting [1]) it was 8.19; with KATO III (FGFR2 amp), 8.90; with Karpas 299 (NPM-ALK) (setting [2]), 6.67; in the assay on Kasumi-1 (KIT N822K) it was 7.79; with KCL-22 (BCR-ABL), 6.74.
With `COCCOc1cc2nccc(Oc3ccc(NC(=O)Nc4cc(C(C)(C)C)n[nH]4)cc3)c2cc1NC(C)=O` [Compound 116, N-[4-{4-[3-(5-tert-butyl-2H-pyrazol-3-yl)-ureido]-phenoxy}-7-(2-methoxy-ethoxy)-quinolin-6-yl]-acetamide], the results for the pIC50 with MOLM-13 (FLT3-ITD) (setting [1]), with KATO III (FGFR2 amp) and with H1581 (FGFR1 amp) were 10.02, 8.71 and 8.05, respectively.
In the same order, the values of `COCCOc1cc2nccc(Oc3ccc(NC(=O)Nc4cc(C(C)(C)C)nn4CCN4CCOCC4)cc3F)c2cc1NC(C)=O` [Compound 136, N-[4-(4-{3-[5-tert-butyl-2-(2-morpholin-4-yl-ethyl)-2H-pyrazol-3-yl]-ureido}-2-fluoro-phenoxy)-7-(2-methoxy-ethoxy)-quinolin-6-yl]-acetamide] are 10.30, 9.40 and 7.41.
Regarding `COCCOc1cc2nccc(Oc3ccc(NC(=O)Nc4cc(C(C)(C)C)n[nH]4)c(Cl)c3)c2cc1C(N)=O` [Compound 42, 4-{4-[3-(5-tert-butyl-2H-pyrazol-3-yl)-ureido]-3-chloro-phenoxy}-7-(2-methoxy-ethoxy)-quinolin-6-carboxamide], the pIC50 in the assay with KATO III (FGFR2 amp) was 9.01; in the assay on H1703 (PDGFRa amp), 7.92; in the assay on Karpas 299 (NPM-ALK) (setting [2]), 7.03; with Kasumi-1 (KIT N822K), 6.72; in the assay on KCL-22 (BCR-ABL) it was 7.33; in the assay with H1581 (FGFR1 amp), 8.04.
Take `COCCOc1cc2nccc(Oc3ccc(NC(=O)Nc4cc(C(C)(C)C)n[nH]4)c(C)c3)c2cc1NC(C)=O` [Compound 133, N-[4-{4-[3-(5-tert-butyl-2H-pyrazol-3-yl)-ureido]-3-methyl-phenoxy}-7-(2-methoxy-ethoxy)-quinolin-6-yl]-acetamide]: the pIC50 is 8.95 in the assay with MOLM-13 (FLT3-ITD) (setting [1]), 8.81 in the assay on KATO III (FGFR2 amp) and 8.09 in the assay on H1581 (FGFR1 amp).
For the compound `CC(C)(C)c1cc(NC(=O)Nc2ccc(-c3cn4c(n3)sc3cc(OCCC5CCOCC5)ccc34)cc2)no1` [AC220, reference compound], the pIC50 is 9.16 in the assay with MOLM-13 (FLT3-ITD) (setting [1]); under 6.00 with KATO III (FGFR2 amp); under 6.00 in the assay on H1703 (PDGFRa amp); under 6.00 in the assay with Karpas 299 (NPM-ALK) (setting [2]); under 6.00 in the assay on Kasumi-1 (KIT N822K); under 6.00 with KCL-22 (BCR-ABL). The pIC50 in the assay on H1581 (FGFR1 amp) is under 6.00.
Consider `CN1CCN(CCCOc2cc3nccc(Oc4ccc(NC(=O)Nc5cc(C(C)(C)C)nn5C5CCCC5)c(Cl)c4)c3cc2C(N)=O)CC1` [Compound 139], for which the pIC50 was 8.01 in the assay on MOLM-13 (FLT3-ITD) (setting [1]), 8.94 with KATO III (FGFR2 amp) and 8.46 in the assay with H1581 (FGFR1 amp).
